This experiment has as its target T1, RSK2 (Homo sapiens, UniProt P51812).
T1 construct: gene RPS6KA3
As to the kind of experiment: FRET kinase assay (Thermo Fisher LanthaScreen / Z'-LYTE). The experiment is classed as biochemical. Background: TR-FRET usually uses a lanthanide donor and a delayed reading to cut background.

What is called pIC50 is the IC50 on a negative log10 scale, so that one unit is a factor of ten. A low value points to a high IC50.

pIC50: −log10 of the molar value.

T1 sequence (P51812 whole entry): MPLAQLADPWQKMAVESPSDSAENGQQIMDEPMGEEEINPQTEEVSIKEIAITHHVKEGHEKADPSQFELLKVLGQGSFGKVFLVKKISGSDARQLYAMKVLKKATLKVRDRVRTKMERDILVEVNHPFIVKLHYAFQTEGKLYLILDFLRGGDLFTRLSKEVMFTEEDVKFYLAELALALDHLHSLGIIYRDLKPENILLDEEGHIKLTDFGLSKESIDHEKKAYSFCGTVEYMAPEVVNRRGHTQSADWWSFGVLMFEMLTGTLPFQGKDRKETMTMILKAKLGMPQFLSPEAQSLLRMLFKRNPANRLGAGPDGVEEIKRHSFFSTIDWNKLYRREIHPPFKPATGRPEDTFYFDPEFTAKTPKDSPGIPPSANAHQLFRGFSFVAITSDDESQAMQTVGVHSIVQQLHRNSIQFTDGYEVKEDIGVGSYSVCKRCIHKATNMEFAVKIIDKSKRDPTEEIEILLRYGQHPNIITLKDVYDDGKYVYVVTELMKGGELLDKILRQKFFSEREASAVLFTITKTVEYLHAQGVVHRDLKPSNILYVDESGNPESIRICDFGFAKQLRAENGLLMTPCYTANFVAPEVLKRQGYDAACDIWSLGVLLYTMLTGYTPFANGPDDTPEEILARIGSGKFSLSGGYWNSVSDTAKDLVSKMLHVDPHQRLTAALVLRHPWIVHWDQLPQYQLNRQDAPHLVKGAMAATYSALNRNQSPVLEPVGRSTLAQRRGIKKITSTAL

The compound `Cc1ccc2[nH]c(=O)c(-c3cnc(=O)[nH]n3)c(O)c2c1` [NSYSU-115] showed a pIC50 of 7.34.
